pEC50, pIC50: −log10 of the molar value. Read-outs that look alike come from different tables or passages of the source.
Key:
[1] = target: human CB1 (Homo sapiens, UniProt P21554); test: Human CB1 cannabinoid receptor radioligand binding assay ([3H]-CP 55,940 displacement, HEK-293 membranes)
Text: (§1) cDNA expression clones for human CB1 (hCB1, Genbank Accession No. AY225225) and human CB2 (hCB2, Genbank Accession No. AY242132) expressed in vector pcDNA3.1+ were purchased from UMR cDNA Resource Center, Rolla, Mo. (Clone ID CNR01L000 for hCB1; CNR0200000 for hCB2).
(§2) Stable, HEK-293-derived cell lines that recombinantly express hCB1 or hCB2 were established. In brief, the clone hCB1 (CNR1L) or hCB2 (CNR2) was transfected into human embryonic kidney cells (HEK-293) using Lipofectamine 2000 (Gibco, Cat#11668-019) according to the manufacturer's protocol. Transfected clones were isolated by single colony purification and clones were screened for receptor expression using a whole cell, 3H-CP 55,940 radioligand binding assay. HEK-293 stable cells were maintained in Dulbecco's modified Eagles medium (DMEM) containing 10% fetal bovine serum, 2 mM L-glutamine and 0.5 mg/mL G-418.
(§3) Membranes were isolated from transfected cells as follows. Monolayers of cultured cells were washed twice with phosphate-buffered saline (PBS). Cells were scraped into 20 mM HEPES, pH 7.4, 10 mM EDTA containing complete cocktail protease inhibitors (Roche, Catalog #11 697 498 001), and were homogenized by an electric-powered mechanical probe homogenizer (Omni GLH; probe G7-195S) for 40 seconds at 7000 rpm. Homogenates were centrifuged 10 minutes at 1000×g at 4° C. The supernatant was collected and was centrifuged for 1 hour at 40,000×g. The supernatant was then decanted and the resulting pellet was re-suspended in 20 mM HEPES, pH 7.4, 5 mM MgCl2, 1 mM EDTA, 10% sucrose with complete cocktail protease inhibitors. Protein concentration of membrane suspensions were measured by Bradford Protein Assay using bovine serum albumin as the standard (BioRad catalog #500-0006). Protein concentrations of membrane suspensions were adjusted with the final buffer in the range of 5 to 10 mg/mL and were stored at −80° C. until further use.
(§4) Radioligand binding assays were performed by incubating membranes (2-10 μg protein) prepared from HEK-293 cells expressing recombinant human cannabinoid receptors, CB1 or CB2, at room temperature with 0.5 nM cannabinoid receptor agonist, [3H]-CP 55,940 (Perkin Elmer, catalog #NET1051) in 0.2 mL of binding buffer (50 mM Tris-HCl, pH 7.5, 5 mM MgCl2, 2.5 mM EDTA) and 0.1% fatty acid free bovine serum albumin (Sigma Cat. #A0821) for 90 minutes. A rapid filtration technique using Millipore FB filter plates (Catalog #MADVNOB) and filtration apparatus (Millipore system Catalog MAVM0960R) with vacuum aspiration was used to harvest and rinse labeled membranes (8 times with 0.2 mL of chilled binding buffer). The radioactivity bound to the filters was counted with 0.05 mL of liquid scintillant (UltraGold MV, PerkinElmer catalog #6013159) in a scintillation counter (Perkin Elmer Microbeta instrument). Nonspecific binding was determined in the presence of unlabeled 1 μM CP 55,940 (Sigma Aldrich, catalog #C1112). Binding data were analyzed using GraphPad Prism (GraphPad Software, Inc. San Diego, Calif.).

[2] = target: T1, human CB2 (Homo sapiens, UniProt P34972); test: Human CB2 cannabinoid receptor radioligand binding assay ([3H]-CP 55,940 displacement, HEK-293 membranes)
T1 sequence (P34972 whole entry): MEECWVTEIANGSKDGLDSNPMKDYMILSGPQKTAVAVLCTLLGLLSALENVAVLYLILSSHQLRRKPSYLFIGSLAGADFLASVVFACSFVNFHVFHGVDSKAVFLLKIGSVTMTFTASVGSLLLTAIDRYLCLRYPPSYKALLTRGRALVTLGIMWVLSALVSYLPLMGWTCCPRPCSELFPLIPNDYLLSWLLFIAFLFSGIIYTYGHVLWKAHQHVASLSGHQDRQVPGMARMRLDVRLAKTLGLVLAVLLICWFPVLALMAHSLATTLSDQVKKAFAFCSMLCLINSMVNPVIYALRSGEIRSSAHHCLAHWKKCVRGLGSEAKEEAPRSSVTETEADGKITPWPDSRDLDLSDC
Text: as §1, §2, §3, §4

[3] = target: T1, human CB2; test: 35S GTPγS binding functional assay, agonist mode, hCB2 HEK-293 membranes; type: biochemical
Protocol: Functional assays which monitor G-protein coupled receptor or downstream cellular responses can be used to characterize potential CB1 receptor and/or CB2 receptor agonist or antagonist activities. Direct activation (or inhibition of activation) can be monitored using a GTPγS assay (membrane-based assay) or cAMP assay (whole cell-based assay).
^35S GTPγS binding assays were performed by incubating recombinant cell membranes prepared above (5 μg) in the presence of scintillation proximity assay beads (SPA beads, Catalog #RPNQ0252 GE Healthcare, Buckinghamshire, England) in GTPγS binding buffer [50 mM HEPES (pH 7.4), 100 mM NaCl, 5 mM MgCl2, 0.001% saponin (Sigma catalog #S4521)] supplemented with 20 uM GDP (Sigma catalog #G7127) in the presence or absence of test compound. The reaction was carried out in 96-well microplates with 0.1 nM [^35S]GTPγS (specific activity=1250 Ci/mmol; Perkin Elmer catalog #NEG030X250UC) in a final volume of 100 uL. After a 90 min room temperature incubation, the reaction was analyzed using a scintillation counter (Perkin Elmer Microbeta instrument). Binding data were analyzed using GraphPad Prism.

[4] = system: mouse; test: Phenylbenzoquinone-induced (PBQ) writhing model; details: dose 30 (unit not given), route IP, P < 0.001
[5] = read-out: hCB1 IC50 (CP displ, nM, HEK); CP 55,940 displacement, HEK-293 membranes
[6] = read-out: hCB2 IC50 (CP displ, nM, HEK); CP 55,940 displacement, HEK-293 membranes
[7] = GTPγS agonist mode, HEK-293 membranes; read-out: hCB2 EC50 (GTPyS ag, nM, HEK)
[8] = CP 55,940 displacement, HEK-293 membranes; read-out: hCB1 IC50 (CP displ, nM, HEK)
[9] = CP 55,940 displacement, HEK-293 membranes; read-out: hCB2 IC50 (CP displ, nM, HEK)
[10] = read-out: hCB2 EC50 (GTPyS ag, nM, HEK); GTPγS agonist mode, HEK-293 membranes

Sequence of human CB1 (P21554 whole entry): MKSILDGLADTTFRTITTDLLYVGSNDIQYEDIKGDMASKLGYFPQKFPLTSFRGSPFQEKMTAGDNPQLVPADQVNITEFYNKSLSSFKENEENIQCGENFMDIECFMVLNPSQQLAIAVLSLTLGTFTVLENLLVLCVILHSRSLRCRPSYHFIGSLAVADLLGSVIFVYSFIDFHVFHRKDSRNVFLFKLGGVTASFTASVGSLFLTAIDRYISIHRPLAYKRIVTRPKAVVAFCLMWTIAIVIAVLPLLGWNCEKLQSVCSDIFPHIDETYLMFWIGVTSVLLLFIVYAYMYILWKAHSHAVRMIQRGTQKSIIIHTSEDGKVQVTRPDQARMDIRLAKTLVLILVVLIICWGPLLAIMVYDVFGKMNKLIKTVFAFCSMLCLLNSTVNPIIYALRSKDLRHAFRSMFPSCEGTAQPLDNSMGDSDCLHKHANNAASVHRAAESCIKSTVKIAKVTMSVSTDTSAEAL

| Compound | IC50 [1, 5] | IC50 [2, 6] | EC50 [3, 7] | other results |
| --- | --- | --- | --- | --- |
| Cc1c(C(=O)c2cccc(Cl)c2Cl)c2ccsc2n1CCN1CCOCC1 [Compound I-1, (2,3-dichlorophenyl)(5-methyl-6-(2-morpholinoethyl)-6H-thieno[2,3-b]pyrrol-4-yl)methanone] |  |  |  | pIC50 [1]: 5.00 to 6.00; pIC50 [2]: > 7.00; pEC50 [3]: > 7.00; Number of Writhes [4]: 1.5 ± 0.79 |
| CCCn1c(C)c(C(=O)c2cccc(Cl)c2Cl)c2ccsc21 [Compound I-2] | > 10000 nM | 100 to 1000 nM | < 100 nM |  |
| Cc1c(C(=O)c2cccc(Cl)c2Cl)c2scnc2n1CCN1CCOCC1 [Compound I-3] | 1000 to 10000 nM | < 100 nM | < 100 nM |  |
| CCCn1c(C)c(C(=O)c2cccc(Cl)c2Cl)c2scnc21 [Compound I-4] | > 10000 nM | 100 to 1000 nM | < 100 nM |  |
| Cc1c(C(=O)c2cccc(Cl)c2Cl)c2sccc2n1CCN1CCOCC1 [Compound I-5] | 1000 to 10000 nM | < 100 nM | < 100 nM |  |
| CCCn1c(C)c(C(=O)c2ccccc2)c2ccsc21 [Compound I-7] |  |  |  | IC50 [1, 8]: > 10000 nM; IC50 [2, 9]: > 10000 nM |
| Cc1c(C(=O)C2C(C)(C)C2(C)C)c2ccsc2n1CCN1CCOCC1 [Compound I-8] | 1000 to 10000 nM | 100 to 1000 nM | < 100 nM |  |
| Cc1c(C(=O)c2cccc(Cl)c2Cl)c2ccsc2n1CCC1CCOCC1 [Compound I-9] | 100 to 1000 nM | < 100 nM | < 100 nM |  |
| COCCn1c(C)c(C(=O)c2cccc(Cl)c2Cl)c2ccsc21 [Compound I-10] | > 10000 nM | 100 to 1000 nM | 100 to 1000 nM |  |
| Cc1c(C(=O)c2cccc(F)c2F)c2ccsc2n1CCN1CCOCC1 [Compound I-11] | > 10000 nM | 1000 to 10000 nM | 100 to 1000 nM |  |
| Cc1c(C(=O)c2cccc(Cl)c2)c2ccsc2n1CCN1CCOCC1 [Compound I-12] | 1000 to 10000 nM | 1000 to 10000 nM |  |  |
| Cc1c(C(=O)c2cccc3c2OCC3)c2ccsc2n1CCN1CCOCC1 [Compound I-14] | 1000 to 10000 nM | 100 to 1000 nM | 100 to 1000 nM |  |
| Cc1c(C(=O)c2ccc(Cl)cc2Cl)c2ccsc2n1CCN1CCOCC1 [Compound I-15] | > 10000 nM | 100 to 1000 nM | 100 to 1000 nM |  |
| Cc1c(C(=O)c2cccc(Cl)c2Cl)c2ccsc2n1CCN1CCCCC1 [Compound I-17] | 1000 to 10000 nM | < 100 nM | < 100 nM |  |
| Cc1c(C(=O)c2cccc(Cl)c2Cl)c2ccsc2n1CC(=O)N1CCOCC1 [Compound I-18] | > 10000 nM | 100 to 1000 nM |  | EC50 [3, 10]: 100 to 1000 nM |
| Cc1c(C(=O)c2cccc(Cl)c2Cl)c2cc(Cl)sc2n1CCN1CCOCC1 [Compound I-19] | 1000 to 10000 nM | < 100 nM | 100 to 1000 nM |  |
| Cc1c(C(=O)c2cccc(Cl)c2Cl)c2ccsc2n1CC1CCCCN1C (centres unmarked) [Compound I-20] | < 100 nM | < 100 nM | < 100 nM |  |
| CCS(=O)(=O)n1c(C)c(C(=O)c2cccc(Cl)c2Cl)c2ccsc21 [Compound I-21] |  |  |  | IC50 [1, 8]: > 10000 nM; IC50 [2, 9]: 1000 to 10000 nM |
| Cc1c(C(=O)c2cccc(Cl)c2Cl)c2ccsc2n1CCC1CCN(C(=O)OC(C)(C)C)CC1 [Compound I-22] |  |  |  | IC50 [1, 8]: > 10000 nM; IC50 [2, 9]: > 10000 nM |
| Cc1c(C(=O)c2cccc(Cl)c2Cl)c2ccsc2n1CC1CCOCC1 [Compound I-23] | 1000 to 10000 nM | < 100 nM | < 100 nM |  |
| Cc1c(C(=O)C2CCCCC2)c2ccsc2n1CCN1CCOCC1 [Compound I-24] | 1000 to 10000 nM | 100 to 1000 nM | 100 to 1000 nM |  |
| Cc1c(C(=O)c2cccc(Cl)c2Cl)c2ccsc2n1CCC1CCN(C)CC1 [Compound I-25] | > 10000 nM | > 10000 nM |  |  |
| CCCOc1ccccc1C(=O)c1c(C)n(CCN2CCOCC2)c2sccc12 [Compound I-27] | > 10000 nM | 1000 to 10000 nM |  |  |
| Cc1c(C(=O)c2cccnc2Cl)c2ccsc2n1CCN1CCOCC1 [Compound I-28] | > 10000 nM | 1000 to 10000 nM |  |  |
| CCn1c(C)c(C(=O)c2cccc(Cl)c2Cl)c2ccsc21 [Compound I-30] | > 10000 nM | 1000 to 10000 nM |  | EC50 [3, 10]: 100 to 1000 nM |
| Cc1c(C(=O)c2ccccc2)c2ccsc2n1CCN1CCOCC1 [Compound I-31] | > 10000 nM | > 10000 nM |  |  |

— US20130196960A1, “Cannabinoid Receptor Agonists” (Ironwood Pharmaceuticals, Inc., priority 2010, published 2013)
